Source: ChEMBL document CHEMBL1240334, “Molecular basis of cyclin-CDK-CKI regulation by reversible binding of an inositol pyrophosphate” (Nat Chem Biol, 2008)
One block for each molecule: values may come before it. Activity calls are given as the source filed them. No cut-off for these calls is given here.

Columns and labels:
[1] = biological target: T1, Pho80/Pho85 (Saccharomyces cerevisiae S288c) (UniProt P17157+P20052); test: Binding affinity of […]-labeled Pho81-MD to Saccharomyces cerevisiae Pho80-Pho85 by fluorescence binding assay relative to untreated control; format: protein-complex assay
[2] = biological target: T1, Pho80/Pho85 (Saccharomyces cerevisiae S288c); test: Inhibition of Saccharomyces cerevisiae Pho80-Pho85 at 50 uM in presence of > 10 uM Pho81-MD; format: protein-complex assay
[3] = biological target: T2, Pho80/Pho85/Pho81 complex (Saccharomyces cerevisiae S288c) (UniProt P17157+P17442+P20052); test: Displacement of [32P]-labeled 4-inositol heptakisphosphate from Pho80-Pho85-Pho81-MD complex in Saccharomyces cerevisiae at 400 uM 30 mins at 4 degC by electrophoretic mobility shift assay; format: protein-complex assay; settings: tested as the 32P-labelled form
[4] = biological target: T3, Phosphate system positive regulatory protein PHO81 (Saccharomyces cerevisiae S288c, UniProt P17442); test: Inhibition of Saccharomyces cerevisiae Pho81-MD-MD dependent Pho80-Pho85 activity after 60 mins
T3 sequence (P17442 whole entry): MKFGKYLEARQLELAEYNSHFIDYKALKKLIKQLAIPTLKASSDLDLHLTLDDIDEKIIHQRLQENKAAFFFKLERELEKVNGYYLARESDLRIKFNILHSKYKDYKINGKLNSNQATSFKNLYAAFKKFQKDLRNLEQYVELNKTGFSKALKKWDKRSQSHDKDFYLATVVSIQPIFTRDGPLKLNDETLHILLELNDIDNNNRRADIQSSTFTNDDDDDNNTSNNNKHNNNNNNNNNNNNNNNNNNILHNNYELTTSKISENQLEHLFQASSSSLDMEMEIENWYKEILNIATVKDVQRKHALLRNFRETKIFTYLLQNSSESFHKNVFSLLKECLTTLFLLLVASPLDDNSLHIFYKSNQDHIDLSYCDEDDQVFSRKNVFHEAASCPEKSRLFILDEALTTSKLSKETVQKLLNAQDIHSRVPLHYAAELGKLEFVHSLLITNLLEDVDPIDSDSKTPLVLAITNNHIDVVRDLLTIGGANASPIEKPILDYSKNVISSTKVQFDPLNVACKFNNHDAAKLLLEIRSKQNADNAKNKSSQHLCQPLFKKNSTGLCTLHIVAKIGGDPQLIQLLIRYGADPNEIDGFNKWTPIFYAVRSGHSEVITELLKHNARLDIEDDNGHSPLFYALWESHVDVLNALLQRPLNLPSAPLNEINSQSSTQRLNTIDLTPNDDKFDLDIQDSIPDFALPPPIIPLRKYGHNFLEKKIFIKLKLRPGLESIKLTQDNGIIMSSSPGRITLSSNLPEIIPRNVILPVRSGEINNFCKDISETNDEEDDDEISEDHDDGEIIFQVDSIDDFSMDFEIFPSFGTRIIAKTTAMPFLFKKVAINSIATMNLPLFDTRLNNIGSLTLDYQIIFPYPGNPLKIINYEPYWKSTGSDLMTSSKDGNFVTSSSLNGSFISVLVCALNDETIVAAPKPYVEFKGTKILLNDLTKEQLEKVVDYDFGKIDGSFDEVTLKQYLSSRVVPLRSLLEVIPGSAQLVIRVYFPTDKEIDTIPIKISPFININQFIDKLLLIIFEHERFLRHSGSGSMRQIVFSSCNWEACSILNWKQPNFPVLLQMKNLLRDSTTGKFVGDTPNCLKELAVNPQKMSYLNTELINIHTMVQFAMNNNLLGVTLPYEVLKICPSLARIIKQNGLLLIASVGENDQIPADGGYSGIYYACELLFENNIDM

[5] = biological target: T2, Pho80/Pho85/Pho81 complex (Saccharomyces cerevisiae S288c); test: Binding affinity to Saccharomyces cerevisiae Pho80-Pho85-Pho81-MD complex at 0.2 uM after 30 mins at by electrophoretic mobility shift assay; settings: tested as the 32P-labelled form
[6] = biological target: T3, Phosphate system positive regulatory protein PHO81; test: Inhibition of Saccharomyces cerevisiae Pho81-MD-MD dependent Pho80-Pho85 activity after 120 mins
[7] = biological target: T3, Phosphate system positive regulatory protein PHO81; test: Inhibition of Saccharomyces cerevisiae Pho81-MD-dependent Pho80-Pho85 activity after 30 mins
[8] = biological target: T2, Pho80/Pho85/Pho81 complex (Saccharomyces cerevisiae S288c); test: Displacement of 5-Inositol heptakisphosphate from Pho80-Pho85-Pho81-MD complex in Saccharomyces cerevisiae at 0.2 uM 30 mins by electrophoretic mobility shift assay; format: protein-complex assay
[9] = biological target: T2, Pho80/Pho85/Pho81 complex (Saccharomyces cerevisiae S288c); test: Binding affinity to Saccharomyces cerevisiae Pho80-Pho85-Pho81-MD complex at 0.2 uM after 30 mins by electrophoretic mobility shift assay in presence of 6mM MgCl2; format: protein-complex assay; settings: tested as the 32P-labelled form
[10] = biological target: T2, Pho80/Pho85/Pho81 complex (Saccharomyces cerevisiae S288c); test: Displacement of [32P]-labeled 6-inositol heptakisphosphate from Pho80-Pho85-Pho81-MD complex in Saccharomyces cerevisiae at 400 uM at 4 degC by electrophoretic mobility shift assay; format: protein-complex assay; settings: tested as the 32P-labelled form
[11] = biological target: T2, Pho80/Pho85/Pho81 complex (Saccharomyces cerevisiae S288c); test: Binding affinity to Saccharomyces cerevisiae Pho80-Pho85-Pho81-MD complex at 0.2 uM after 30 mins by electrophoretic mobility shift assay in presence of 6mM CaCl2; format: protein-complex assay; settings: tested as the 32P-labelled form
[12] = biological target: T2, Pho80/Pho85/Pho81 complex (Saccharomyces cerevisiae S288c); test: Displacement of [32P]-labeled 6-inositol heptakisphosphate from Pho80-Pho85-Pho81-MD complex in Saccharomyces cerevisiae at 400 uM at 30 degC by electrophoretic mobility shift assay; format: protein-complex assay; settings: tested as the 32P-labelled form
[13] = biological target: T2, Pho80/Pho85/Pho81 complex (Saccharomyces cerevisiae S288c); test: Displacement of [32P]-labeled 4-inositol heptakisphosphate from Pho80-Pho85-Pho81-MD complex in Saccharomyces cerevisiae at 400 uM 30 mins at 30 degC by electrophoretic mobility shift assay; format: protein-complex assay; settings: tested as the 32P-labelled form
[14] = biological target: T4, Pho80/Pho85/Pho81 complex (Saccharomyces cerevisiae S288c, UniProt P17157+P17442+P20052); test: Inhibition of Saccharomyces cerevisiae Pho80-Pho85-Pho81-MD catalyzed phosphorylation of Pho4-site 6 peptide; format: protein-complex assay
[15] = biological target: T2, Pho80/Pho85/Pho81 complex (Saccharomyces cerevisiae S288c); test: Binding affinity to Saccharomyces cerevisiae Pho80-Pho85-Pho81-MD complex at 400 uM after 30 mins at 4 degC by electrophoretic mobility shift assay; format: protein-complex assay
[16] = biological target: T1, Pho80/Pho85 (Saccharomyces cerevisiae S288c); test: Binding affinity of Pho81-MD S2-segment to Saccharomyces cerevisiae Pho80-Pho85; format: protein-complex assay
[17] = biological target: T4, Pho80/Pho85/Pho81 complex; test: Competitive inhibition of Saccharomyces cerevisiae Pho80-Pho85-Pho81-MD catalyzed phosphorylation of Pho4 assessed as increase in substrate concentration by line-weaverberk plot assay; format: protein-complex assay
[18] = biological target: T3, Phosphate system positive regulatory protein PHO81; test: Inhibition of Saccharomyces cerevisiae Pho81-MD-dependent Pho80-Pho85 activity after 10 mins
[19] = biological target: T2, Pho80/Pho85/Pho81 complex (Saccharomyces cerevisiae S288c); test: Binding affinity to Saccharomyces cerevisiae Pho80-Pho85-Pho81-MD complex at 0.2 uM after 30 mins by electrophoretic mobility shift assay in presence of 6 mM ZnSO4; format: protein-complex assay; settings: tested as the 32P-labelled form
[20] = biological target: T2, Pho80/Pho85/Pho81 complex (Saccharomyces cerevisiae S288c); test: Inhibition of Saccharomyces cerevisiae Pho80-Pho85-Pho81-MD catalyzed phosphorylation of Pho4 D175V distal-site mutant; format: protein-complex assay
[21] = biological target: T2, Pho80/Pho85/Pho81 complex (Saccharomyces cerevisiae S288c); test: Inhibition of Saccharomyces cerevisiae Pho80-Pho85-Pho81-MD catalyzed phosphorylation of Pho4 I22T distal-site mutant assessed as increase in substrate concentration; format: protein-complex assay
[22] = biological target: T2, Pho80/Pho85/Pho81 complex (Saccharomyces cerevisiae S288c); test: Binding affinity to Saccharomyces cerevisiae Pho80-Pho85-Pho81-MD complex at 0.2 uM after 30 mins by electrophoretic mobility shift assay in presence of 6mM MnCl2; format: protein-complex assay; settings: tested as the 32P-labelled form
[23] = biological target: T2, Pho80/Pho85/Pho81 complex (Saccharomyces cerevisiae S288c); test: Displacement of myo-inositol hexakisphosphate from Pho80-Pho85-Pho81-MD complex in Saccharomyces cerevisiae at 0.2 uM 30 mins by electrophoretic mobility shift assay; format: protein-complex assay
[24] = biological target: T1, Pho80/Pho85 (Saccharomyces cerevisiae S288c); test: Inhibition of Saccharomyces cerevisiae Pho80-Pho85 at 100 uM in presence of > 10 uM Pho81-MD; format: protein-complex assay
[25] = biological target: T2, Pho80/Pho85/Pho81 complex (Saccharomyces cerevisiae S288c); test: Inhibition of Saccharomyces cerevisiae Pho80-Pho85-Pho81-MD catalyzed phosphorylation of Pho4 F29I distal-site mutant assessed as increase in substrate concentration; format: protein-complex assay
[26] = biological target: T1, Pho80/Pho85 (Saccharomyces cerevisiae S288c); test: Binding affinity of Pho81-MD S1-segment to Saccharomyces cerevisiae Pho80-Pho85; format: protein-complex assay
[27] = biological target: T2, Pho80/Pho85/Pho81 complex (Saccharomyces cerevisiae S288c); test: Inhibition of Saccharomyces cerevisiae Pho80-Pho85-Pho81-MD catalyzed phosphorylation of Pho4 P174L distal-site mutant assessed as increase in substrate concentration; format: protein-complex assay
[28] = biological target: T2, Pho80/Pho85/Pho81 complex (Saccharomyces cerevisiae S288c); test: Inhibition of Saccharomyces cerevisiae Pho80-Pho85-Pho81-MD catalyzed phosphorylation of wild type Pho4 distal-site assessed as increase in substrate concentration; format: protein-complex assay
[29] = biological target: T2, Pho80/Pho85/Pho81 complex (Saccharomyces cerevisiae S288c); test: Binding affinity to Saccharomyces cerevisiae Pho80-Pho85-Pho81-MD complex at 400 uM after 30 mins at 30 degC by electrophoretic mobility shift assay; format: protein-complex assay
[30] = biological target: T2, Pho80/Pho85/Pho81 complex (Saccharomyces cerevisiae S288c); test: Inhibition of Saccharomyces cerevisiae Pho80-Pho85-Pho81-MD catalyzed phosphorylation of Pho4 S176N distal-site mutant assessed as increase in substrate concentration; format: protein-complex assay
[31] = biological target: T4, Pho80/Pho85/Pho81 complex; test: Binding affinity to Saccharomyces cerevisiae Pho80-Pho85-Pho81-MD complex from 2uM to 80 uM after 30 mins by electrophoretic mobility shift assay in presence of 6 mM MgCl2; format: protein-complex assay; settings: read-out: Kd(app)

T4 sequence (P17157 whole entry, one chain of several): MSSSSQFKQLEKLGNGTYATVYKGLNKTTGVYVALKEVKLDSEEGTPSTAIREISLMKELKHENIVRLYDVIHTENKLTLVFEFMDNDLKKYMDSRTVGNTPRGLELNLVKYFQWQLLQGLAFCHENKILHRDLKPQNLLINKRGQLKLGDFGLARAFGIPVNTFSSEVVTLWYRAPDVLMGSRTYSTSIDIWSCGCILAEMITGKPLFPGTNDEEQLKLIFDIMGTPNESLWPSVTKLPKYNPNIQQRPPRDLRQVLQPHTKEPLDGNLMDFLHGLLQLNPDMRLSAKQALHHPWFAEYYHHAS
T4 sequence (P20052 whole entry, one chain of several): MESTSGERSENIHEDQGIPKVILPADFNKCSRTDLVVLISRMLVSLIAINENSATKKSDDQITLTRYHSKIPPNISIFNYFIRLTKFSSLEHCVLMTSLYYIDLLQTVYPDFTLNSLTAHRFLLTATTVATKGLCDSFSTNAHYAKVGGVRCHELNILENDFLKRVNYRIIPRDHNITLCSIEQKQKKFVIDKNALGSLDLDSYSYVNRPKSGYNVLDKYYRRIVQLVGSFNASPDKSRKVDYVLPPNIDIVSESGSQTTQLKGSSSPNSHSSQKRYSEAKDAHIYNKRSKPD

- fold change (FC) [1]: 5
- Activity [2]: inactive
- Activity [3]: inactive
- IC50 [4]: 31 µM
- Activity [5]: inactive
- IC50 [6]: 22 µM
- IC50 [7]: 14 µM
- Activity [8]: Active
- Activity [9]: Active
- Activity [10]: inactive
- Activity [11]: inactive
- Activity [12]: Active
- Activity [13]: Active
- IC50 [14]: 25 µM
- Activity [15]: inactive
- Activity [16]: inactive
- Ki [17]: 19 µM
- IC50 [18]: 23 µM
- Activity [19]: Active
- inhibition [20]: Active
- inhibition [21]: Active
- Activity [22]: Active
- Activity [23]: Active
- Activity [24]: inactive
- inhibition [25]: Active
- Activity [26]: Active
- inhibition [27]: Active
- inhibition [28]: Active
- Activity [29]: inactive
- inhibition [30]: Active
- Kd [31]: 20.3 µM
SMILES: O=P(O)(O)O[C@H]1[C@@H](OP(=O)(O)O)[C@@H](OP(=O)(O)O)[C@H](OP(=O)(O)OP(=O)(O)O)[C@@H](OP(=O)(O)O)[C@@H]1OP(=O)(O)O

- Activity [1]: inactive
SMILES: O=P(O)(O)O[C@H]1[C@@H](OP(=O)(O)O)[C@H](OP(=O)(O)O)[C@@H](OP(=O)(O)OP(=O)(O)O)[C@H](OP(=O)(O)O)[C@H]1OP(=O)(O)O
